Results on twelve compounds are retold here after patent US4552895A, “Furo[3,2-b]furan-2-(3H)-ones” (Eli Lilly and Company, priority 1983, dated 1985).

Usually inhibition in vivo stands for the drop in the measured response relative to a control, in per cent. A lower inhibition in vivo goes with little suppression.

The structures appear in SMILES notation.

In test [1] the test system is angiogenesis factor. The experiment in a line: Tumor angiogenesis inhibition in vivo: serpentine vessels induced by lysosomal-mitochondrial preparation from 3683 Morris hepatoma in mice. Further details: species or system mice (SPF/ND4 female). To be noted: Mus musculus, ip, mice sacrificed after 24 hours, average number of serpentine vessels vs control. As for the experimental part:
Lysosomal-mitochondrial pellets containing angiogenesis factor are prepared from 3683 Morris hepatoma. The pellet is diluted with 7-8 ml. of 15% ficoll. At this dilution, 8-10 serpentine vessels are usually produced per 0.2 cc. injection as described below for the control group.
Next, 15 SPF/ND4 female mice weighing 20-22 g. are shaved on the left side and then divided into three groupss of five each. One group (drug group) is injected subcutaneously and laterally with 0.2 cc. of the lysosomal-mitochondrial preparation diluted with 15% ficoll. This group of mice is then dosed individually by the intraperitoneal route with 0.5 cc. of a solution or suspension in a standard vehicle containing the compound under test, usually at an initial dose level of 300 mg./kg. If this dose level is toxic, two-fold dilutions are made until all mice survive a single dose. The second group of mice (control group) is injected subcutaneously and laterally with 0.2 cc. of the lysosomal-mitochondrial suspension diluted with ficoll and dosed intraperitoneally with 0.5 cc. of the vehicle alone. The third group of mice (negative control) is injected with the ficoll solution only (without the lysosomal-mitochondrial pellet) without treatment with compound or vehicle. The mice are sacrificed after 24 hours. Each mouse is placed on its side on a dissecting board with the shaved side up. Starting at the flank, the skin is cut straight to the back of the animal. A similar cut is made behind the front leg. The skin is then cut along the back making a flap of about one inch by two inches. The skin is carefully separated from the connective tissue by using forceps and a scalpel. The skin flap is then laid back exposing the lysosomal-mitochondrial implant which is attached to the skin. The skin flap is gently flattened out and with the use of a binocular dissecting scope, serpentine vessels are observed around the lysosomal-mitochondrial implant and their number counted. All observations of the number of serpentine vessels are made at the same power of the microscope (1×). The average number of serpentine vessels for each group is calculated. The percent inhibition is then calculated according to the following equation. [formula] where sv=averge number of serpentine vessels.
If the negative control group described above has any serpentine vessels, the test is invalid due to contamination of the ficoll solution.

Test [2] deals with Collagen-Induced Arthritis. The experiment in a line: Collagen-induced arthritis assay (type II collagen, hindpaw volume) in rats. Type of test: in vivo, inbred Lewis male rats. To be noted: oral gavage 5 days per week from day 1 to day 28 or 30. As for the experimental part:
This test method is a collagen arthritis assay carried out as follows.
Type II collagen is isolated from bovine articular cartilage by the method of Strawich and Nimni [Biochemistry, 10, 3905 (1971)]. The collagen is dissolved in 0.1M acetic acid and stored at -20° C. Type II collagen solution is diluted to 2 mg./ml. concentration and emulsified thoroughly with an equal volume of incomplete Freund's adjuvant (ICFA). The emulsion containing approximately 0.5 mg. of collagen is injected intradermally on day 0 to groups of 6 inbred Lewis male rats (Charles River Breeders; 170-200 g.) at various sites in the dorsal area. The hindpaw volumes of each rat are measured and recorded three times a week throughout the test period to assess the inflammatory reaction. The test group animals receive compounds under test as suspensions in carboxymethylcellulose vehicle, by oral gavage, 5 days per week (Monday-Friday), beginning on day 1. Control animals receive vehicle without a test compound. At the end of the test (day 28 or 30), the blood of these animals is drawn by cardiac puncture and the serum anti-type II collagen antibody levels are estimated by passive hemagglutination technique, using glutaraldehyde treated sheep red cells, to which type II collagen is conjugated [Avrameas et al., Immunochemistry, 6, 67 (1969); Andriopoulos et al., Arth. Rheum., 19, 613 (1976)]. The cellular response or delayed-type hypersensitivity response to type II collagen is measured by the radiometric ear index assay [Kostiala, Immunology, 33, 561 (1977)]. In certain experiments, the bone damage occurring because of immunization with type II collagen and the effects of drugs are determined from the radiographs of the hindpaws of two or three representative animals from each group. Injections of ICFA without collagen II were employed to some rats as a negative control; these rats received only […] vehicle during the test.
The % inhibition is calculated according to the following formula: [formula] where Vt is the hindpaw volume of a compound-treated animal (test group), Vc is the hindpaw volume of a non-compound-treated animal ([…] vehicle only-the control group), the Vv is the hindpaw volume of a vehicle ([…]) treated animal which received ICFA with no collagen II (negative control group).

In the case of `O=C1OC2C(O)COC2(O)C1(O)Cc1ccc(F)cc1` (stereo not drawn) [Example 1, [3R-(3aα,6α,6aα)]-tetrahydro-3,3a,6-trihydroxy-3-[(4-fluorophenyl)methyl]furo[3,2-b]furan-2(3H)-one], in test [1], 25 mg/kg produced 62% inhibition in vivo. The “Inhibition of Collagen-Induced Arthritis, % inhibition” value (shortened to “Inhibition … % inhibition”) in test [2] (25 mg./kg.) is listed as 94%.
Compound `O=C1OC2C(O)COC2(O)C1(O)Cc1cccc(Br)c1` (stereo not drawn) [Example 2] gave an inhibition in vivo at 25 mg/kg in test [1] of 45%.
As for `O=C1OC2C(O)COC2(O)C1(O)Cc1cccc(Cl)c1` (stereo not drawn) [Example 3], the inhibition in vivo at 25 mg/kg in test [1] worked out at 55%. In addition, in test [2] (15 mg./kg.), the “Inhibition … % inhibition” value is on record as 100%.
As to `O=C1OC2C(O)COC2(O)C1(O)Cc1ccccc1Cl` (stereo not drawn) [Example 4], the inhibition in vivo at 25 mg/kg in test [1] was 38%.
With `O=C1OC2C(O)COC2(O)C1(O)Cc1ccc(Cl)cc1` (stereo not drawn) [Example 5], the inhibition in vivo at 25 mg/kg in test [1] was determined as 52%. Moreover, in test [2] (15 mg./kg.), the “Inhibition … % inhibition” value came out at 81%.
Consider `O=C1OC2C(O)COC2(O)C1(O)Cc1ccccc1F` (stereo not drawn) [Example 6], for which 25 mg/kg produced 33% inhibition in vivo in test [1].
As to `O=C1OC2C(O)COC2(O)C1(O)Cc1cccc(F)c1` (stereo not drawn) [Example 7], in test [1], testing at 25 mg/kg gave an inhibition in vivo of 57%. Besides, the “Inhibition … % inhibition” value in test [2] (25 mg./kg.) is listed as 100%.
In turn, `O=C1OC2C(O)COC2(O)C1(O)Cc1ccc(C(F)(F)F)cc1` (stereo not drawn) [Example 8] came in with an inhibition in vivo at 25 mg/kg in test [1] of 55%.
`Cc1cccc(CC2(O)C(=O)OC3C(O)COC32O)c1` (stereo not drawn) [Example 9] came in with an inhibition in vivo at 25 mg/kg in test [1] of 48%.
For the compound `Cc1ccccc1CC1(O)C(=O)OC2C(O)COC21O` (stereo not drawn) [Example 10], in test [1], at 25 mg/kg the inhibition in vivo was 48%.
The compound `Cc1ccc(CC2(O)C(=O)OC3C(O)COC32O)cc1` (stereo not drawn) [Example 11] yielded an inhibition in vivo at 25 mg/kg in test [1] of 62%. In addition, the “Inhibition … % inhibition” value in test [2] (15 mg./kg.) came out at 94%.
Take `Cc1ccc(C)c(CC2(O)C(=O)OC3C(O)COC32O)c1` (stereo not drawn) [Example 12]: in test [1], the inhibition in vivo at 25 mg/kg came out at 58%. Moreover, the “Inhibition … % inhibition” value in test [2] (25 mg./kg.) worked out at 23%.
